Data taken from paper PMC8805605, “Discovery of Dimeric Arylsulfonamides as Potent ADAM8 Inhibitors” (ACS Medicinal Chemistry Letters, 2021).

System: ADAM8-dependent shedding of CD23 in double-stable HEK cells (ADAM8/CD23)
Test: Cell-based CD23 shedding assay (soluble CD23 ELISA)
Details: Homo sapiens, HEK293, 24 h incubation, 125 nM to 10 μM, ELISA of supernatants, read-out: IC50 for shedding of CD23 (soluble CD23 release)
Method: Next, these compounds were tested for their ability to inhibit the shedding of an ADAM8-dependent cell surface protein, the low affinity IgE receptor CD23, […]. In brief, a human embryonic kidney (HEK) cell line expressing ADAM8 and CD23[13] was incubated with different concentrations of inhibitors, and the release of soluble CD23 in the cell supernatants was determined by a CD23 enzyme-linked immunosorbent assay (ELISA) (Figure 4).
Figure 4 Effects of new compounds 1–3 and JG26 (125 nM to 10 μM) on the shedding of CD23 in a cell-based assay using double-stable HEK cells (ADAM8/CD23). After the incubation of cells with 1–3 and JG26 for 24 h, cell supernatants were collected and subjected to an ELISA to determine the amount of soluble CD23. Data are the mean values from three independent experiments performed in triplicate. […]
VII. Biological Activity on cells
Cell-based shedding assay
HEK293 cells stably transfected with ADAM8 and CD23 were incubated for 24 h at 37°C in the presence of inhibitors in concentrations indicated in DMEM medium supplemented with 10% fetal calf serum. A human soluble CD23 ELISA (R&D Systems, Biotechne, Wiesbaden) was used to detect ADAM8-dependent release of soluble CD23 in the cell culture medium. ELISA experiments were performed in three independent experiments in triplicates. The relative CD23 release (control = 100%) was determined for all samples. […]

Structure (SMILES)	IC50 [nM]
O=C(CCCNC(=O)c1cccc(C(=O)NCCCC(=O)NCCC[C@@H](NS(=O)(=O)c2ccc(OCc3cc(Br)cc(Br)c3)cc2)C(=O)NO)c1)NCCC[C@@H](NS(=O)(=O)c1ccc(OCc2cc(Br)cc(Br)c2)cc1)C(=O)NO [Compound 1]	> 1500
O=C(NCCC[C@@H](NS(=O)(=O)c1ccc(OCc2cc(Br)cc(Br)c2)cc1)C(=O)NO)c1cccc(C(=O)NCCC[C@@H](NS(=O)(=O)c2ccc(OCc3cc(Br)cc(Br)c3)cc2)C(=O)NO)c1 [Compound 2]	350
O=C(NCCC[C@@H](NS(=O)(=O)c1ccc(OCc2cc(Br)cc(Br)c2)cc1)C(=O)NO)NCCC[C@@H](NS(=O)(=O)c1ccc(OCc2cc(Br)cc(Br)c2)cc1)C(=O)NO [Compound 3]	800
NC(=O)NCCC[C@@H](NS(=O)(=O)c1ccc(OCc2cc(Br)cc(Br)c2)cc1)C(=O)NO [JG26, reference compound]	120
